# Test results taken from patent publication US20230121245A1, “REGENERATIVE NONSTEROIDAL ANTI-INFLAMMATORY COMPOSITIONS, METHODS OF PRODUCTION, AND METHODS OF USE THEREOF” (CROWN SCIENTIFIC, L.L.C., priority 2021, published 2023).
# System: TNFα
# Assay: LPS induced TNFα response in PBMCs (monocyte/macrophage model)
# Assay type: cell-based, human
# Details: 0.01-100 μM, compared to vehicle control (0.13% DMSO), 100 ng LPS, 24 hours
# Method: Fresh leukoreduction system (LRS) cones of healthy donors aged 18-80 years old were purchased from Oklahoma Blood Institute. PBMCs were isolated from LRS cones using EasySep™ Direct Human PBMC Isolation Kit (cat #19654, StemCell Technologies) as per manufacturer's specifications. 1.5 million PBMCs were seeded in 0.5 ml of RPMI (11835030, Gibco) supplemented with 5% HPL (Millcreek), lx Glutamax (35050061, Gibco), 1×NEAA (11140050, Gibco) and 2 U/ml heparin (25021040030, Sagent Pharmaceuticals) in a 24 well plate and rested overnight. The following day, PBMCs were co-stimulated with 100 ng of lipopolysaccharide (LPS, 00-4976-93, Invitrogen) and different doses RNSA in a volume of 0.5 ml. RNSA doses were prepared in saline (R5201-01, Braun) supplemented with 5% HPL and 2 U/ml heparin. Betamethasone (Cayman, 20363), a positive control, was resuspended in DMSO (D4540, Sigma) and administered to PBMCs at different doses to a final 0.13% DMSO concentration. Vehicle for RNSA was 50% saline and for Betamethasone 0.13% DMSO for a 1 ml reaction. All samples were tested in technical triplicates. Treatment duration was 24 hours for all groups. After 24 hours, the supernatant was collected, spun at 5,000 g for 10 minutes and the cell free supernatant stored at −80 C. To detect TNFα, hTNFα Simple Plex assay quantification was performed on ELLA ELISA based detection method (ProteinSimple).
smiles,measurement,value
C[C@H]1C[C@H]2[C@@H]3CCC4=CC(=O)C=C[C@]4(C)[C@@]3(F)[C@@H](O)C[C@]2(C)[C@@]1(O)C(=O)CO [Betamethasone],attenuation of TNFα response,20-68%
